The source of these data is patent US12305177B2, “Methods and platforms for sustainable high yield terpenoid production” (Purdue Research Foundation, priority 2019, dated 2025).

One test has as its target T1, A. thaliana Nudx1 (Arabidopsis thaliana, UniProt Q9CA40).
T1 construct: The open reading frames (ORFs) of Arabidopsis Nudix genes were PCR-amplified from cDNA; His8 (N, cleaved yes); made in house; host or cells: E. coli BL21(DE3)
In words: Phosphatase activity / steady-state kinetics of recombinant AtNudx1 (BIOMOL Green phosphate detection). Format: biochemical. The settings on record: for Km / kcat: substrate of AtNudx1, 100 mM TAPS pH 8.5, 10 mM MgCl2, 37° C., means ± SD, n = 3. The procedure:
(§1) After removal of the cell debris by centrifugation, expressed proteins were purified from the supernatants by immobilized metal-affinity chromatography with HisPur Ni-NTA resin (ThermoFisher Scientific). Pure proteins were eluted with 50 mM Tris-HCL pH 8.0, 0.5 M NaCl buffer supplemented with 250 mM imidazole followed by buffer exchange to 50 mM Tris-HCl pH 8.0 and 0.2 M NaCl for storage. For the crystal screening and steady-state kinetic analysis described below, the N-terminal His8-tags of AtNudx1 and AtNudx3 were removed with thrombin and remaining histidine-tagged protein was removed by passing over HisPur Ni-NTA resin. AtNudx1 and AtNudx3 were further purified by size-exclusion chromatography on a Superdex 200 16/60 column (GE Lifesciences) equilibrated and eluted with 50 mM Tris-HCl pH 8.0 supplemented with 0.2 M NaCl and 2 mM dithiothreitol.
(§2) All enzyme assays described in the present disclosure were performed as follows. Phosphatase activity was monitored at 37° C. using BIOMOL Green reagent (Enzo Life Sciences) to detect and quantify released phosphate at 623 nm using a phosphate standard curve. The optimum pH for activity was determined using a three-component buffer system of 50 mM acetic acid, 50 mM MES, and 100 mM Tris-HCl with 0.1 mM IPP as substrate. Magnesium ion dependence was investigated with 1 mM to 20 mM MgCl2. […] Reactions were initiated by the addition of enzyme and quenched by the addition of BIOMOL Green.
(§3) Controls included assays without enzyme and without substrate. All enzyme assays were performed at an appropriate enzyme concentration so that the reaction velocity was linear and proportional to the enzyme concentration during the incubation time period. Kinetic data was fitted using Prism (GraphPad Software) to the Michaelis-Menten equation to compute KM and kcat. At least triplicate assays were performed for all data points. Resulting Findings and Systems, Methods, and Platforms

In another test the target is T2, A. thaliana Nudx3 (Arabidopsis thaliana, UniProt Q8L831).
T2 construct: His8 (N, cleaved yes); made in house; host or cells: E. coli BL21(DE3)
T2 sequence (Q8L831 1-772): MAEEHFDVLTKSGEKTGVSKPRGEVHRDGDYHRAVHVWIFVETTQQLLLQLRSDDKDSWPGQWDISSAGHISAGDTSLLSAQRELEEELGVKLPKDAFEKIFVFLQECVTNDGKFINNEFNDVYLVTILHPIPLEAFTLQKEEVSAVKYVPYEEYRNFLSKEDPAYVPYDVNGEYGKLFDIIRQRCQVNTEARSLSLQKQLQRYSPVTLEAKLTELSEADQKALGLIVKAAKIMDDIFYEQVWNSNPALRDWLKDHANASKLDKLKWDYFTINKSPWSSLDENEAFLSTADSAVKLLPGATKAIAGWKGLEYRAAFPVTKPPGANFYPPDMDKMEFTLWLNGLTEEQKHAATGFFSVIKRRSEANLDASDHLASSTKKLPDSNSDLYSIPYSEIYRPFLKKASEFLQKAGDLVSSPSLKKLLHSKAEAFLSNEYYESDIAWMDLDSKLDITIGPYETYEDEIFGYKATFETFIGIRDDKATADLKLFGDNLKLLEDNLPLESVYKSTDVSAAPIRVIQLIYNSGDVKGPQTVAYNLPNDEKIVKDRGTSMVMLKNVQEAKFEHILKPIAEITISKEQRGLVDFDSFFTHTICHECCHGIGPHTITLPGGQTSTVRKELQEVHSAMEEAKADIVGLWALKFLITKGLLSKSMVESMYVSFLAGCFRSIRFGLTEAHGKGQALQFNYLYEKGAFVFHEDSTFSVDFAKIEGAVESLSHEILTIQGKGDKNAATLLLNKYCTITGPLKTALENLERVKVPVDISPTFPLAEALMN
As to the kind of experiment: Phosphatase activity / steady-state kinetics of recombinant AtNudx3 (BIOMOL Green phosphate detection). It is filed as biochemical. As to conditions: for Km / kcat: substrate of AtNudx3, 100 mM TAPS pH 8.5, 10 mM MgCl2, 37° C., means ± SD, n = 3. The procedure:
as §1, §2, §3

The next test deals with T3, AtPMK (Arabidopsis thaliana, UniProt Q9C6T1).
T3 sequence (Q9C6T1 1-505): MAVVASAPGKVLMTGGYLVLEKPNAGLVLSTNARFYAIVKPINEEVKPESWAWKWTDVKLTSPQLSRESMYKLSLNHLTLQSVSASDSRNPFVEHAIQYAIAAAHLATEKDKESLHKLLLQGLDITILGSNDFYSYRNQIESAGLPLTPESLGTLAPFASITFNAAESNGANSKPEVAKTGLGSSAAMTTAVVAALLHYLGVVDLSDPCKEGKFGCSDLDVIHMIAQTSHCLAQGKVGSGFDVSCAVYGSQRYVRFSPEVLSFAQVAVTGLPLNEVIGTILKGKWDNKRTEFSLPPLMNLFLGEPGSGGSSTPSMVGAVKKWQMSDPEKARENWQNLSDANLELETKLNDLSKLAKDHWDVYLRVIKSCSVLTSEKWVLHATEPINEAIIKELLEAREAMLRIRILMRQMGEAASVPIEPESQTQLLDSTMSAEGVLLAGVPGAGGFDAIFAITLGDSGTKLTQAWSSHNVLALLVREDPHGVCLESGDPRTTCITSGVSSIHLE
The settings on record: substrate of Arabidopsis PMK (AtPMK, At1g31910); previous characterization; cited from earlier work.

In another test the test system is FPP synthase. As to conditions: cited from earlier work.

T1 sequence (Q9CA40 whole entry): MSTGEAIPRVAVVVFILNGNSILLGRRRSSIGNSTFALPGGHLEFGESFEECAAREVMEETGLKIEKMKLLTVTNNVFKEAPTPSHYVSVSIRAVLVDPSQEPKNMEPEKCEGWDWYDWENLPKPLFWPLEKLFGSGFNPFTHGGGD

Usually Km stands for the substrate concentration at which the rate is half of its maximum. The kcat is the number of substrate molecules converted per active site and unit of time at saturation. On to `Nc1nc2c([nH]c(=O)n2[C@H]2C[C@H](O)[C@@H](COP(=O)(O)OP(=O)(O)OP(=O)(O)O)O2)c(=O)[nH]1` [8-oxo-dGTP], for which, on A. thaliana Nudx1, the Km stood at 33 ± 2 µM and the kcat amounted to 4.5 ± 0.1 s⁻¹. The “phosphatase activity with the compound as substrate” value (“phosphatase activity” below) on A. thaliana Nudx3 (AtNudx3) was “unable to dephosphorylate”.

On to `C[C@@](O)(CCOP(=O)(O)O)CC(=O)O` [MVAP, phosphomevalonate], for which the “phosphatase activity” value on A. thaliana Nudx1 (AtNudx1) and at A. thaliana Nudx3 (AtNudx3) was “No phosphatase activity was detected” in each case. At AtPMK, the Km is 12 µM.

Take `CC(C)=CCC/C(C)=C/COP(=O)(O)OP(=O)(O)O` [GPP, geranyl diphosphate]: on A. thaliana Nudx1, the Km was determined as 8.3 ± 2.5 µM and the kcat came out at 2.0 ± 0.3 s⁻¹. Also, at A. thaliana Nudx3, the Km amounted to 53 ± 13 µM and the kcat was found to be 2.7 ± 0.3 s⁻¹.

As for mevalonate diphosphate [(R)-MVAPP], on A. thaliana Nudx1 (AtNudx1, compared with IPP, DMAPP, GPP and FPP), the “fold less efficient as a substrate (catalytic efficiency)” value was 100 fold. Besides, the Km at A. thaliana Nudx1 came to 240 ± 60 µM; at A. thaliana Nudx3, 125 ± 36 µM. Moreover, the values for the kcat at A. thaliana Nudx1 and at A. thaliana Nudx3 were 0.51 ± 0.06 s⁻¹ and 1.5 ± 0.2 s⁻¹, respectively.

Regarding `C=C(C)CCOP(=O)(O)OP(=O)(O)O` [IPP, isopentenyl diphosphate], on A. thaliana Nudx1 (AtNudx1, IPP as substrate, 37° C.), the “fold lower specific activity at pH 6.5 than at the optimal pH of 8.5” value came to 7 fold. Further, on A. thaliana Nudx1, the Km is 8 ± 0.6 µM and the kcat was 1.11 ± 0.02 s⁻¹. Besides, the “fold higher catalytic efficiency” value at A. thaliana Nudx3 (AtNudx3, compared to GPP and FPP as substrates) is reported as 3 fold. Moreover, on A. thaliana Nudx3, the Km came to 36 ± 8 µM and the kcat is 5.5 ± 0.3 s⁻¹.

For the compound `CC(C)=CCC/C(C)=C/COP(=O)(O)O` [GP, geranyl phosphate], the “phosphatase activity” value on A. thaliana Nudx1 (AtNudx1) and at A. thaliana Nudx3 (AtNudx3) was “No phosphatase activity was detected” each time.

Turning to `CC(C)=CCC/C(C)=C/CC/C(C)=C/COP(=O)(O)O` [FP, farnesyl phosphate], the “phosphatase activity” value at A. thaliana Nudx1 (AtNudx1) and at A. thaliana Nudx3 (AtNudx3) was “No phosphatase activity was detected” throughout.

Regarding `CC(C)=CCOP(=O)(O)O` [DMAP, dimethylallyl phosphate], the “inhibition of FPP synthase” value with FPP synthase is reported as “competitively inhibited”. Besides, the “phosphatase activity” value at A. thaliana Nudx1 (AtNudx1) and at A. thaliana Nudx3 (AtNudx3) was “No phosphatase activity was detected” throughout.
